Among the data in ChEMBL document CHEMBL1134405 (J Med Chem, 2001) are IC50 and pA2 values, retold here.

As usually defined, the IC50 is the concentration at which inhibition is half-maximal. As a reminder, the pA2 is the negative logarithm of the molar antagonist concentration that doubles the agonist concentration needed for the same response. Read a high pA2 as a more potent antagonist.

The structures appear in SMILES notation.

In one experiment the target is Glucagon receptor (Rattus norvegicus, UniProt P30082). In words: Compound was evaluated for its ability to displace radiolabeled glucagon (inactive up to 100 uM).
Experiment [1] is described as follows: pA2 value, a dose-response plot was obtained by determining the response when the concentration of glucagon was varied while the concentration was kept same.

Sequence of Glucagon receptor (P30082 whole entry): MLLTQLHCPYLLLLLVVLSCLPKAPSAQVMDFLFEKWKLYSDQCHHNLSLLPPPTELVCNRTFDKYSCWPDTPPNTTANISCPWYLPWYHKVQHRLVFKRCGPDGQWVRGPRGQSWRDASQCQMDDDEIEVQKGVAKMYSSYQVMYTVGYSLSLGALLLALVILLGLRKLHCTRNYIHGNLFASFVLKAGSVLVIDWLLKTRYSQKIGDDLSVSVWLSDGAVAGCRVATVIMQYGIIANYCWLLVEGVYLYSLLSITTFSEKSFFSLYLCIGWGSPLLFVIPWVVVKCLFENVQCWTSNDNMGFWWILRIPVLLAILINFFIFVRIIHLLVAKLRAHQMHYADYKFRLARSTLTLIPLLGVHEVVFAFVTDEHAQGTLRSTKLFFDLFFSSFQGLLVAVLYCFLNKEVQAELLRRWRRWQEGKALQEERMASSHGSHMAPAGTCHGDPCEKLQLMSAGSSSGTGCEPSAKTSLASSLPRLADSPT

`CSCC[C@H](NC(=O)[C@H](CC(C)C)NC(=O)[C@H](Cc1c[nH]c2ccccc12)NC(=O)[C@H](CCC(N)=O)NC(=O)[C@@H](NC(=O)[C@H](Cc1ccccc1)NC(=O)[C@H](CC(=O)O)NC(=O)[C@H](CCC(N)=O)NC(=O)[C@H](C)NC(=O)[C@H](CCCN=C(N)N)NC(=O)[C@H](CCCN=C(N)N)NC(=O)[C@H](CO)NC(=O)[C@H](CC(=O)O)NC(=O)[C@H](CC(C)C)NC(=O)[C@H](Cc1ccc(O)cc1)NC(=O)[C@H](CCCCN=C(N)N)NC(=O)[C@H](CO)NC(=O)[C@H](Cc1ccc(O)cc1)NC(=O)[C@H](CC(=O)O)NC(=O)[C@H](CO)NC(=O)[C@@H](NC(=O)[C@H](Cc1ccccc1)NC(=O)[C@@H](NC(=O)CNC(=O)[C@H](CCC(N)=O)NC(=O)[C@H](CO)NC(=O)[C@H](Cc1c[nH]cn1)Nc1c([N+](=O)[O-])cc([N+](=O)[O-])cc1[N+](=O)[O-])[C@@H](C)O)[C@@H](C)O)C(C)C)C(=O)N[C@@H](CC(N)=O)C(=O)N[C@H](C(=O)O)[C@@H](C)O` showed an IC50 on Glucagon receptor of 0.015 µM. Further, the pA2 in experiment [1] was determined as 8.16.
